Results on 2 compounds are retold here after patent US20110086429A1, “METHODS AND DEVICES FOR DETECTING OZONE AND CARBONYL-CONTAINING COMPOUNDS” (SIGMA-ALDRICH CO., priority 2007, published 2011).

The nature of this data set: Solubility in acetonitrile, DMSO and their mixtures. It is filed as physicochemical.

Converted amounts (≈) assume the structure as drawn.

Regarding `O=[N+]([O-])c1ccc(NN=Cc2ccncc2)c([N+](=O)[O-])c1` [pyridine-4-aldehyde 2,4-DNPhydrazone, pyridine-4-aldehyde 2,4-dinitrophenylhydrazone], the “solubility in DMSO (in words)” value (DMSO) is “relatively high concentration”. In addition, the “solubility in acetonitrile (in words)” value (acetonitrile) is recorded as “poor solubility”.
As a reminder, the solubility is the dissolved amount per volume that the medium holds. On to `O=Cc1ccncc1` [pyridine-4-aldehyde], for which the solubility (organic solvent or mixture, acetonitrile, FIG. 3 at 25° C.) was ~790 µM (≈ 84.6 µg/mL).
